This is an account of results in patent US20130183239A1, “ISOTOPIC CARBON CHOLINE ANALOGS” (IMPERIAL COLLEGE, priority 2010, published 2013).

The subject of data set [1] is human melanoma SKMEL-28 xenografts. The conditions noted are these: mouse, in vivo. The protocol:
Dynamic [^18F]FCH and [^18F]D4-FCH imaging scans were carried out on a dedicated small animal PET scanner, quad-HIDAC (Oxford Positron Systems). The features of this instrument have been described previously (Barthel, H., et al., Cancer Res 2003; 63(13):3791-8). For scanning the tail veins, vehicle- or drug-treated mice were cannulated after induction of anesthesia (isofluorane/O2/N2O). The animals were placed within a thermostatically controlled jig (calibrated to provide a rectal temperature of ˜37° C.) and positioned prone in the scanner. [^18F]FCH or [^18F]D4-FCH (2.96-3.7 MBq) was injected via the tail vein cannula and scanning commenced. Dynamic scans were acquired in list mode format over a 60 min period as reported previously (Leyton, J., et al., Cancer Research 2006; 66(15):7621-9). The acquired data were sorted into 0.5 mm sinogram bins and 19 time frames (0.5×0.5×0.5 mm voxels; 4×15, 4×60, and 11×300 s) for image reconstruction, which was done by filtered back-projection using a two-dimensional Hamming filter (cutoff 0.6). The image data sets were visualized using the Analyze software (version 6.0; Biomedical Imaging Resource, Mayo Clinic). Cumulative images of 30 to 60 min dynamic data were used for visualization of radiotracer uptake and to draw regions of interest. Regions of interest were defined manually on five adjacent tumor regions (each 0.5 mm thickness). Dynamic data from these slices were averaged for each tissue (liver, kidney, muscle, urine, and tumor) and at each of the 19 time points to obtain time versus radioactivity curves. Corresponding whole body time versus radioactivity curves representing injected radioactivity were obtained by adding together radioactivity in all 200×160×160 reconstructed voxels. Tumor radioactivity was normalized to whole-body radioactivity and expressed as percent injected dose per voxel (% ID/vox). The normalized uptake of radiotracer at 60 min (% ID/vox60) was used for subsequent comparisons. The average of the normalized maximum voxel intensity across five slices of tumor % IDvox60max was also use for comparison to account for tumor heterogeneity and existence of necrotic regions in tumor. The area under the curve was calculated as the integral of % ID/vox from 0 to 60 min.

In data set [2] the test system is prostate adenocarcinoma PC3-M tumors. Also on record: AUC: unit not given beside the values. The protocol:
Dynamic ^11C-choline, ^11C-D4-choline and ^18F-D4-choline imaging scans were carried out on a dedicated small animal PET scanner (Siemens Inveon PET module, Siemens Medical Solutions USA, Inc., Malvem, Pa., USA) following a bolus i.v. injection in tumor-bearing mice of either ˜3.7 MBq for ^18F studies, or ˜18.5 MBq for ^11C. Dynamic scans were acquired in list mode format over 60 min. The acquired data were then sorted into 0.5 mm sinogram bins and 19 time frames for image reconstruction (4×15 s, 4×60 s, and 11×300 s), which was done by filtered back projection. For input function analysis, data were sorted into 25 time frames for image reconstruction (8×5 s, 1×20 s, 4×40 s, 1×80 s, and 11×300 s). The Siemens Inveon Research Workplace software was used for visualization of radiotracer uptake in the tumor; 30 to 60 min cumulative images of the dynamic data were employed to define 3-dimensional (3D) regions of interest (ROIs). Arterial input function was estimated as follows: a single voxel 3D ROI was manually drawn in the center of the heart cavity using 2 to 5 min cumulative images. Care was taken to minimize ROI overlap with the myocardium. The count densities were averaged for all ROIs at each time point to obtain a time versus radioactivity curve (TAC). Tumor TACs were normalized to injected dose, measured by a VDC-304 dose calibrator (Veenstra Instruments, Joure, The Netherlands), and expressed as percentage injected dose per mL tissue. The area under the TAC, calculated as the integral of % ID/mL from 0-60 min, and the normalized uptake of radiotracer at 60 min (% ID/mL60) were also used for comparisons.
For PET imaging, tumors were grown to 100 mm^3 prior to imaging.
A 2-tissue irreversible compartmental model was employed to fit the TACs, as has been previously established for ^11C-choline (Kenny L M, Contractor K B, Hinz R, et al. Reproducibility of [11C]choline-positron emission tomography and effect of trastuzumab. Clin Cancer Res. Aug. 15 2010; 16(16):4236-4245; and Sutinen E, Nurmi M, Roivainen A, et al. Kinetics of [(11)C]choline uptake in prostate cancer: a PET study. Eur J Nucl Med Mol. Imaging. March 2004; 31(3):317-324). An estimate of the whole blood TAC (wbTAC(t)) was derived from the PET image itself, as described above. […] Therefore it was fitted with a sum of 3 exponentials from the peak on and the fitted function was used as input function in the kinetic modeling (after metabolite correction, see below). […] The pf values were fitted to a sum of two exponentials with the constraint pf(t=0)=1 to obtain the function pf(t). The parent whole blood TAC wbTACPAR(t) was then computed by multiplying wbTAC(t) and pf(t) and used as input function to estimate the parameters K1 (mL/cm^3/min), k2 (1/min), k3 (1/min) and Vb (unitless). The steady state net irreversible uptake rate constant Ki (mL/cm^3/min) was calculated from the estimated microparameters as K1k3/(k2+k3).

Where [3] appears, read: PC3-M tumors, 2-tissue irreversible model.

For the molecule `[2H]C([2H])(O)C([2H])([2H])[N+](C)(C)C[18F]` [[^18F]D4-FCH, [^18F]fluoromethyl-[1,2-^2H4]-choline], in data set [1], the “% IDvox60max (average of maximum pixel % ID/vox60 across 5 slices)” value is on record as “significantly higher” and the “tumor area under the time versus radioactivity curve (AUC)” value was “higher”. Further, in data set [2] (setting [3]), the “K1′” value is on record as 0.090 ± 0.007, the Ki is on record as 0.009 ± 0.002 mL/cm^3/min and the k3 came to 0.040 ± 0.006 min⁻¹. For the same molecule, in data set [2] (mouse, in vivo), the AUC is listed as 121.3 ± 3.1; the NUV60 is reported as 1.97 ± 0.07 % ID/mL; the “increase in % ID/mLmax, smaller versus larger tumors” value is listed as 1.4 fold; the “increase in normalized uptake at 60 min, smaller versus larger tumors” value amounted to 2.4 fold. In addition, the “time to maximal tumor-specific radioactivity” value in data set [2] (mouse, in vivo) was at most 5 min.
